Measured values from US20110269790A1, “NOVEL THIENOPYRIDINES AS PHARMACOLOGICALLY ACTIVE AGENTS” (priority 2009, published 2011).
In brackets after ≈: the same amount, converted by molar mass. Several values for one entry are separate records, joined by “and”; a condition that tells them apart may be missing. Identical values can stand only once. Like-named read-outs stand apart in the source and are kept apart here.

Experiments:
[1] = system: Wistar rats; assay: Carrageenan induced paw edema model; assay type: in vivo, rat; conditions: for change in vivo at 100 mg/kg / inhibition in vivo at 100 mg/kg: Rattus norvegicus; for change in vivo at 100 mg/kg: read-out: % Increase in Paw Volume; for inhibition in vivo at 100 mg/kg: read-out: % Inhibition (paw volume); for % Inhibition / Percentage Swelling (50 mg/kg) / Percentage Swelling (100 mg/kg) / Percentage Swelling (200 mg/kg): dose response study, n=6
Protocol: Male Albino Wistar rats of 150-180 grams were used for the experiments.
Anti-inflammatory activity of test compounds was evaluated in Wistar rats employing the method of Winter et al (1963) and Diwan et al (1989). Male Wistar rats were used for the study. […] The different test compounds were administered to the animals in the test group at the dose of 100 mg/kg, by oral route. Animals in the standard group received Indomethacin at the dose of 10 mg/kg, by oral route. All test and standard compounds were administered as 1% gum acacia suspension. Rats in the control group received the vehicle solution without drugs. One hour after test drugs administration, rats in all the groups were challenged with 0.1 ml of 1% Carrageenan in the sub plantar region of right hind paw. A zero hour paw volume was measured for all the rats using digital plethysmometer (Ugo Basile, Italy) before the administration of carrageenan for all groups. Paw volumes were again measured 3 hrs after the challenge of Carrageenan. The percent inhibition of paw volume for each rat in treated groups was calculated by comparing with mean paw volume of control group and expressed as mean (±SE) percent inhibition of paw volume for each test. In a preliminary study the compounds that have shown good activity were evaluated for dose response study by using above procedure.

[2] = system: A431 (Skin cancer) cell lines; assay: MTT assay, A431; assay type: cell-based; conditions: Homo sapiens, read-out: A431 cell lines IC50
Protocol: A431 (Skin cancer), Colo-205 (Colon cancer), A549 (Lung cancer) cell lines were obtained from National Center for Cell science (NCCS), Pune, India. DMEM (Dulbeccos Modified Eagles Medium), MTT [3-(4,5-dimethylthiazol-2-yl)-2,5-diphenyl tetrazolium bromide], Trypsin, EDTA were purchased from Sigma Chemicals Co (St. Louis, Mo.), Fetal bovine serum were purchased from Arrow labs, 96 well flat bottom tissue culture plates were purchased from Tarson.
A431, Colo-205, A549 cell lines were grown as adherent cells in DMEM media supplemented with 10% fetal bovine serum, 100 μg/ml penicillin, 200 μg/ml streptomycin, 2 mM L-glutamine, and culture was maintained in a humidified atmosphere with 5% CO2. Stock solution of 10 mg/ml was prepared for test molecules in DMSO. From the stock, various dilutions were made with sterile water to get required concentration. A431, Colo-205, A549 cell lines were seeded at a density of 1×10^4 cells (cell number was determined by Trypan blue exclusion dye method) per each well in 100 μl of DMEM supplemented with 10% FBS. 12 hrs after seeding, above media was replaced with fresh DMEM supplemented with 10% FBS. Then, 10 μl sample from above stock solutions were added to each well in triplicates which gives final concentration of 100, 50, 25, 10 μg/well. The above cells were incubated for 48 hrs at 37° C. with 5% CO2. After 48 hrs incubation the above media was replaced with 100 μl of fresh DMEM with out FBS and to this 10 μl of MTT (5 mg dissolved in 1 ml of PBS) was added and incubated for 3 hrs at 37° C. with 5% CO2. After 3 hrs of incubation, the above media was removed with multi channel pipette, then 200 μl of DMSO was added to each well and incubated at 37° C. for 15 min. Finally, the plate was read at 570 nm using spectrophotometer (Spectra Max, Molecular devices).

[3] = system: mice; assay: Adenosine mediated bronchoconstriction and lung inflammation in an allergic mouse model; assay type: in vivo; parameters: Total count: unit not given here; conditions: BAL fluid cells; 100 mg/kg oral
Protocol: Thienopyridines were proven as potent cytotoxic and anti-inflammatory agents in the previous experimental results. In cytotoxic MTT assay, activity of these molecules may be due to the involvement of adenosine receptors. Further, to find the bronchodilatory activity of these moieties and to find the involvement of adenosine receptors in their action, non-invasive and invasive adenosine mediated bronchoconstriction and lung inflammation in an allergic mouse model was performed.
Male mice, 6-8 weeks of age, free of specific pathogens were obtained from National Institute of Nutrition. The animals were maintained on a ragweed-free diet. All experimental protocols used in this study were under a protocol approved by animal ethical committee. Sensitization was performed according to the modified procedure described by Fan et al, 2002. Mice were sensitized on days 1 and 6 with i.p. injections of ragweed allergen (200 μg/200 μl of water for injection). Non-sensitized control animals received only water for injection with the same volumes. Ten days after sensitization, the mice were placed in plexiglas chamber and challenged with 0.5% ragweed or with 0.9% saline as a control for twenty minutes both in the morning and evening for three days. Then mice were divided into different groups consisting of six animals each. The groups including a control without sensitization; a sensitized group and a standard group along with groups of the test molecules were separated. Twenty-four hours after last challenge with ragweed, the mice were given an oral dose of test molecules and theophylline (100 mg/kg body weight) as acacia suspension. Two hours after administration of the oral dose, the mice were challenged with adenosine solution (24 mg/ml). The variation in respiration was recorded after anaesthetizing them with pentobarbitone sodium (0.1 ml 200 mg/ml ip) using kymograph. Then, mice were sacrificed and trachea was cannulated to collect the bronchoalveolar lavage fluid. This was performed by pumping 1 ml phosphate buffered saline into lungs through tracheal cannula and collecting the sample. Analysis of BAL fluid was performed to get the cellular differentials. The BAL fluid was centrifugated at 1500 rpm for six minutes at room temparature. After removing the supernatant, BAL cells were resuspended in 1 ml of phosphate buffered saline. Total cells were then counted manually in a hemocytometer chamber. A differential count of at least 300 cells was made according to the standard morphologic criteria and results were mentioned in table.

[4] = test compounds 100 mg/kg oral, Indomethacin 10 mg/kg oral, 3 hrs after Carrageenan

Compound | change in vivo at 100 mg/kg [1, 4] [%] | inhibition in vivo at 100 mg/kg [1, 4] [%] | IC50 ([2]; A-431, MTT, 48 hrs) [µg/mL] | melting point [°C] | % Inhibition ([1]; 50 mg/kg oral) [%] | Percentage Swelling (50 mg/kg) ([1]; 50 mg/kg oral) [%] | % Inhibition ([1]; 100 mg/kg oral) [%] | Percentage Swelling (100 mg/kg) ([1]; 100 mg/kg oral) [%] | % Inhibition ([1]; 200 mg/kg oral) | Percentage Swelling (200 mg/kg) ([1]; 200 mg/kg oral) [%] | Differential count (%) Lymphocytes [3] [%] | Differential count (%) Monocytes [3] [%] | Total count [3] | Differential count (%) Eosinophils [3] [%] | change in vivo at 100 mg/kg ([1]; po, 3 h) [%] | inhibition in vivo at 100 mg/kg ([1]; po, 3 h) [%] | IC50 ([2]; A-431, 48 h) [µg/mL] | % Inhibition ([1]; 200 mg/kg oral, listed as B-16) [%]
Cc1sc2nc3c(c(N)c2c1C)CCCC3 [BN-2, 2,3-dimethyl-5,6,7,8-tetrahydrothieno[2,3-b]quinolin-4-amine] | 83.1 ± 2.66 | 20.6 ± 2.05 | 31.6 (≈ 136 µM) | 210 |  |  |  |  |  |  |  |  |  |  |  |  |  | 
Cc1sc2nc3c(c(N)c2c1C)CCCCC3 [BN-4, 2,3-dimethyl-6,7,8,9-tetrahydro-5H-cyclohepta[b]thieno[3,2-e]pyridin-4-amine] | 68.1 ± 3.41 | 41.8 ± 3.77 | 47.8 (≈ 194 µM) |  | 23.93 ± 2.96 | 73.27 ± 4.47 | 35.68 ± 3.77 | 64.42 ± 3.97 | 53.2% and 53.2 ± 3.03% | 44.23 ± 3.34 | 80 | 20 | 9 |  |  |  |  | 
Nc1c2c(nc3sc4c(c13)CCCC4)CCC2 [BN-5, 2,3,6,7,8,9-Hexahydro-1H-benzo[4,5]thieno[2,3-b]cyclopenta[e]pyridin-10-amine] | 101 ± 2.94 | 4.32 ± 1.19 | 141 (≈ 577 µM) | 221 |  |  |  |  |  |  |  |  |  |  |  |  |  | 
Nc1c2c(nc3sc4c(c13)CCCC4)CCCC2 [BN-6, 1,2,3,4,7,8,9,10-Octahydrobenzo[4,5]thieno[2,3-b]quinolin-11-amine] | 109 ± 2.73 | 3.14 ± 1.96 | 36.3 (≈ 140 µM) |  |  |  |  |  |  |  | 75 | 10 | 10.5 | 15 |  |  |  | 
CC1CCc2c(nc3sc4c(c3c2N)CCCC4)C1 (stereo not drawn) [BN-7, 8-Methyl-1,2,3,4,7,8,9,10-octahydrobenzo[4,5]thieno[2,3-b]quinolin-11-amine] | 113 ± 22.3 | 0.7 ± 0.7 | 36.3 (≈ 133 µM) |  |  |  |  |  |  |  | 70 | 10 | 7 | 20 |  |  |  | 
Nc1c2c(nc3sc4c(c13)CCCC4)CCCCC2 [BN-8, 2,3,4,7,8,9,10,11-Octahydro-1H-benzo[4,5]thieno[2,3-b]cyclohepta [e]pyridin-12-amine] |  |  |  |  |  |  |  |  |  |  | 70 | 10 | 14 | 20 | 109 ± 4.87 | 1.2 ± 0.87 | 51.1 (≈ 188 µM) | 
Nc1c2c(nc3sc4c(c13)CCC4)CCCC2 [BN-14, 2,3,6,7,8,9-Hexahydro-1H-cyclopenta[4,5]thieno[2,3-b]quinolin-10-amine] |  | 33.5 ± 8.35 | 99.3 (≈ 406 µM) |  | 19.80 ± 2.24 | 72.34 ± 1.73 | 33.47 ± 6.70 | 71.30 ± 3.72 | 56.45% and 56.45 ± 3.12% | 41.78 ± 3.31 | 80 | 13.5 | 13.5 | 15 |  |  |  | 
Nc1c2c(nc3sc4c(c13)CCC4)CCCCC2 [BN-16, 1,2,3,6,7,8,9,10-Octahydrocyclohepta[b]cyclopenta[4,5]thieno[3,2-e]pyridine-11-amine] | 61.1 ± 19.2 | 44.9 ± 5.86 | 63 (≈ 244 µM) |  | 20.47 ± 1.61 | 73.18 ± 2.41 | 44.90 ± 5.86 | 61.09 ± 5.86 | 56.0 ± 2.87% | 45.60 ± 5.30 | 90 | 15 | 8 | 12 |  |  |  | 57.53
COc1ccc2c(c1)c(CC(=O)O)c(C)n2C(=O)c1ccc(Cl)cc1 [Indomethacin, reference compound] | 41.7 ± 9.97 | 50.1 ± 12.1 |  |  |  |  |  |  |  |  |  |  |  |  |  |  |  | 
